Data: PubChem BioAssay AID248 (DTP/NCI, 2004)
Several values for one entry are separate records, joined by “and”; a condition that tells them apart may be missing. Identical values can stand only once. Inconclusive results and toxic doses are left out. No stated cut-off is given here; in the data, active means T/C of 150% or more; inactive means T/C below 125%.

System: L1210 leukemia ip in BDF1 mice, survival T/C
Assay: NCI In Vivo Anticancer Drug Screen. Data for tumor model L1210 Leukemia (intraperitoneal) in B6D2F1 (BDF1) mice
Conditions: endpoint: mean survival time, higher = longer survival
How it was run: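 Antitumor effect is assessed in tumor-bearing animals. Survival in the compound arm is compared with a vehicle-dosed control arm and expressed as their quotient.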

[1] = dose: 100.0 mg/kg/injection, schedule: Q01DX001 (ip), vehicle: Klucel (hydroxypropylcellulose) (HPC)
[2] = dose: 200.0 mg/kg/injection, schedule: Q01DX001 (ip), vehicle: Klucel (hydroxypropylcellulose) (HPC)
[3] = dose: 100.0 mg/kg/injection, schedule: Q01DX001 (ip), vehicle: saline
[4] = dose: 200.0 mg/kg/injection, schedule: Q01DX001 (ip), vehicle: saline
[5] = dose: 400.0 mg/kg/injection, schedule: Q01DX001 (ip), vehicle: saline
[6] = dose: 100.0 mg/kg/injection, schedule: Q04DX003 (ip), vehicle: saline with Tween-80
[7] = dose: 200.0 mg/kg/injection, schedule: Q04DX003 (ip), vehicle: saline with Tween-80
[8] = dose: 400.0 mg/kg/injection, schedule: Q04DX003 (ip), vehicle: saline with Tween-80
[9] = dose: 100.0 mg/kg/injection, schedule: Q04DX002 (ip), vehicle: Klucel (hydroxypropylcellulose) (HPC)
[10] = dose: 200.0 mg/kg/injection, schedule: Q04DX002 (ip), vehicle: Klucel (hydroxypropylcellulose) (HPC)
[11] = dose: 100.0 mg/kg/injection, schedule: Q01DX009 (ip), vehicle: Klucel (hydroxypropylcellulose) (HPC)
[12] = dose: 100.0 mg/kg/injection, schedule: Q01DX009 (ip), vehicle: saline with Tween-80
[13] = dose: 100.0 mg/kg/injection, schedule: Q04DX003 (ip), vehicle: Klucel (hydroxypropylcellulose) (HPC)
[14] = dose: 200.0 mg/kg/injection, schedule: Q01DX009 (ip), vehicle: saline with Tween-80
[15] = dose: 400.0 mg/kg/injection, schedule: Q01DX009 (ip), vehicle: saline with Tween-80
[16] = dose: 50.0 mg/kg/injection, schedule: Q01DX001 (ip), vehicle: saline
[17] = dose: 25.0 mg/kg/injection, schedule: Q01DX009 (ip), vehicle: Klucel (hydroxypropylcellulose) (HPC)
[18] = dose: 50.0 mg/kg/injection, schedule: Q01DX009 (ip), vehicle: Klucel (hydroxypropylcellulose) (HPC)

Measured: T/C

Nc1ncc(-c2ccccc2)nn1 (tested in a mixture with another compound)
inactive: [1] 90 % of control | [2] 90 % of control | dose: 400.0 mg/kg/injection, schedule: Q01DX001 (ip), vehicle: Klucel (hydroxypropylcellulose) (HPC) 116 % of control

CCCCC#CCl
inactive: [3] 101 % of control | [4] 94 % of control | [5] 94 % of control

CCOc1ccc(N2C(=O)CC(Sc3ccccc3N)C2=O)cc1 (stereo not drawn)
inactive: [6] 89 % of control | [7] 90 % of control | [8] 88 % of control

Nc1nc(N)nc(COc2ccccc2Cl)n1
inactive: [9] 119 % of control | [10] 90 % of control

NC1CC(c2ccccc2)NC(c2ccccc2)C1 (stereo not drawn)
inactive: dose: 15.0 mg/kg/injection, schedule: Q01DX001 (ip), vehicle: carboxymethylcellulose (CMC) 100 % of control

CCC(CC)C(=O)NC(=O)NC(C)=O
inactive: dose: 75.0 mg/kg/injection, schedule: Q01DX001 (ip), vehicle: Klucel (hydroxypropylcellulose) (HPC) 91 % of control | dose: 150.0 mg/kg/injection, schedule: Q01DX001 (ip), vehicle: Klucel (hydroxypropylcellulose) (HPC) 102 % of control | dose: 300.0 mg/kg/injection, schedule: Q01DX001 (ip), vehicle: Klucel (hydroxypropylcellulose) (HPC) 88 % of control

CCOC(=O)c1c(Cl)c(Cl)c(Cl)c(Cl)c1C(=O)OCC
inactive: [11] 105 % of control | [12] 101 % of control | [13] 90 % of control | [6] 100 % of control | dose: 200.0 mg/kg/injection, schedule: Q01DX009 (ip), vehicle: Klucel (hydroxypropylcellulose) (HPC) 104 % of control | [14] 90 % of control | dose: 200.0 mg/kg/injection, schedule: Q04DX003 (ip), vehicle: Klucel (hydroxypropylcellulose) (HPC) 95 % of control | [7] 104 % of control | dose: 400.0 mg/kg/injection, schedule: Q01DX009 (ip), vehicle: Klucel (hydroxypropylcellulose) (HPC) 100 % of control | [15] 93 % of control | dose: 400.0 mg/kg/injection, schedule: Q04DX003 (ip), vehicle: Klucel (hydroxypropylcellulose) (HPC) 105 % of control | [8] 102 % of control

CCCCCCCCCCCC[N+](C)(C)C
inactive: dose: 10.0 mg/kg/injection, schedule: Q01DX009 (ip), vehicle: saline 104 % of control | dose: 20.0 mg/kg/injection, schedule: Q01DX009 (ip), vehicle: saline 105 % of control

O=C(Nc1cccc(C(F)(F)F)c1)OCCOc1ccc(Cl)cc1
inactive: [9] 89 % of control | [10] 96 % of control | dose: 400.0 mg/kg/injection, schedule: Q04DX002 (ip), vehicle: Klucel (hydroxypropylcellulose) (HPC) 101 % of control

COC(C(OC(C)=O)C(OC(C)=O)C(OC(C)=O)C(COC(C)=O)OC(C)=O)n1cc(C)c(=O)[nH]c1=O (stereo not drawn)
inactive: [16] 103 % of control | [3] 97 % of control | [4] 95 % of control | [5] 91 % of control

Cc1cc(Cl)c(Cl)cc1NC(=O)C(Br)C(Br)c1ccccc1 (stereo not drawn)
inactive: dose: 100.0 mg/kg/injection, schedule: Q01DX009 (ip), vehicle: other 92 % of control | dose: 200.0 mg/kg/injection, schedule: Q01DX009 (ip), vehicle: other 92 % of control | dose: 400.0 mg/kg/injection, schedule: Q01DX009 (ip), vehicle: other 92 % of control

COc1ccc(NC(=O)CC#N)cc1
inactive: [1] 101 % of control | [2] 95 % of control

CS/C(N)=N/N
inactive: dose: 12.5 mg/kg/injection, schedule: Q04DX003 (ip), vehicle: saline 100 % of control | dose: 25.0 mg/kg/injection, schedule: Q01DX001 (ip), vehicle: saline 90 % of control | dose: 25.0 mg/kg/injection, schedule: Q04DX003 (ip), vehicle: saline 106 % of control | [16] 101 % of control

NC(=O)c1nccnc1Cl
inactive: [12] 91 % of control | [6] 100 % of control | [14] 98 % of control | [7] 97 % of control | [8] 110 % of control

O=C1C2=C(C(=O)c3ccccc31)C(=O)C1CC=CCC1C2=O (stereo not drawn)
inactive: dose: 0.25 mg/kg/injection, schedule: Q04DX003 (ip), vehicle: saline with Tween-80 102 % of control | dose: 0.5 mg/kg/injection, schedule: Q04DX003 (ip), vehicle: saline with Tween-80 104 % of control | dose: 1.0 mg/kg/injection, schedule: Q04DX003 (ip), vehicle: saline with Tween-80 98 % of control | dose: 2.0 mg/kg/injection, schedule: Q04DX003 (ip), vehicle: saline with Tween-80 96 % of control | dose: 4.0 mg/kg/injection, schedule: Q04DX003 (ip), vehicle: saline with Tween-80 110 % of control | dose: 8.0 mg/kg/injection, schedule: Q04DX003 (ip), vehicle: saline with Tween-80 100 % of control and 105 % of control | dose: 16.0 mg/kg/injection, schedule: Q04DX003 (ip), vehicle: saline with Tween-80 102 % of control and 103 % of control | dose: 25.0 mg/kg/injection, schedule: Q01DX009 (ip), vehicle: saline with Tween-80 106 % of control | dose: 32.0 mg/kg/injection, schedule: Q04DX003 (ip), vehicle: saline with Tween-80 103 % of control | dose: 50.0 mg/kg/injection, schedule: Q01DX009 (ip), vehicle: saline with Tween-80 106 % of control | dose: 64.0 mg/kg/injection, schedule: Q04DX003 (ip), vehicle: saline with Tween-80 97 % of control and 105 % of control | [12] 110 % of control | dose: 128.0 mg/kg/injection, schedule: Q04DX003 (ip), vehicle: saline with Tween-80 105 % of control | [14] 101 % of control | dose: 256.0 mg/kg/injection, schedule: Q04DX003 (ip), vehicle: saline with Tween-80 94 % of control

Cc1ccc(N=NNc2ccc(C)cc2)cc1
inactive: [17] 96 % of control | [18] 97 % of control | dose: 75.0 mg/kg/injection, schedule: Q04DX003 (ip), vehicle: Klucel (hydroxypropylcellulose) (HPC) 100 % of control | [11] 97 % of control | dose: 150.0 mg/kg/injection, schedule: Q04DX003 (ip), vehicle: Klucel (hydroxypropylcellulose) (HPC) 100 % of control | dose: 300.0 mg/kg/injection, schedule: Q04DX003 (ip), vehicle: Klucel (hydroxypropylcellulose) (HPC) 100 % of control

O=C(Nc1nccs1)Nc1ccccc1C(F)(F)F
inactive: [12] 100 % of control | [14] 106 % of control | [15] 92 % of control

CCOC(=O)C(C)(Cc1c(C)cc(C)c(CC(C)(C(=O)OCC)C(=O)OCC)c1C)C(=O)OCC
inactive: [17] 95 % of control | dose: 25.0 mg/kg/injection, schedule: Q04DX003 (ip), vehicle: Klucel (hydroxypropylcellulose) (HPC) 98 % of control | [18] 91 % of control | dose: 50.0 mg/kg/injection, schedule: Q04DX003 (ip), vehicle: Klucel (hydroxypropylcellulose) (HPC) 96 % of control | [11] 96 % of control | [13] 100 % of control

Cc1c2c(cc3c1CCC1(C)C3=CCC1C(C)CCC(C)C(C)C)CCCC2 (stereo not drawn)
inactive: dose: 100.0 mg/kg/injection, schedule: Q01DX001 (ip), vehicle: saline with Tween-80 93 % of control | dose: 200.0 mg/kg/injection, schedule: Q01DX001 (ip), vehicle: saline with Tween-80 95 % of control | dose: 400.0 mg/kg/injection, schedule: Q01DX001 (ip), vehicle: saline with Tween-80 91 % of control
